Laboratory results from patent US6770287B1, “Biocidal cellulosic material” (The Regents of the University of California, priority 2000, dated 2004).

Key:
S. aureus [1] = test: AATCC Test Method 100 quantitative antibacterial test (bacterial reduction); assay type: cell-based, Staphylococcu aureus (ATCC 5368); details: Anti-1 4%, contact time 60 min
Source text: AATCC Test Method 100 was adopted in this study. According to this test method, four pieces of staked circular fabric swatches 4.8±0.1 (about one grams) were inoculated with 1.0±0.1 milliliter of inoculum in a 250 milliliter jar. The inoculum was a nutrient broth culture containing over 1.0×10^6 clone forming units (CFU) of organisms. After the swatches were inoculated, they were neutralized by 100 milliliter of a 0.02% sodium thiosulfate solution in the jar. The contact time was the time between inoculation and neutralization. The jar was vigorously shaken and the neutralized solution was diluted in serial. The dilutions, usually 100, 101, and 102, were plated on nutrient agar and incubated for 18-24 hours at 37° C. The number of bacteria recovered from the inoculated finished fabrics was counted and compared with that from untreated fabrics. Six log reduction means the total inactivation of bacteria, and one log reduction means that finished fabrics reduced bacteria counts from 106 CFU to 105 CFU.
Finished fabrics prepared from solutions containing 1%-6% of monomethylol-5,5-dimethylhydantoin following the protocol set forth in Example 1 with pickup rates below 1% have been tested.
Fabrics finished in accordance with the protocol set forth in Example II with Anti-2, i.e., 1,3-dimethylol-5,5-dimethylhydantoin, were also tested with AATCC test method 100, which was briefly described in Example IV. In the tests, a diluted CLOROX® solution containing 0.01 % active chlorine was used to chlorinate the finished fabrics.

S. aureus [2] = test: AATCC Test Method 147 qualitative antibacterial test (inhibition zone); assay type: cell-based, Staphylococcu aureus (ATCC 5368)
Source text: (§1) Fabric samples of #405 (pure cotton, Testfabrics, Inc., Middlesex, N.J.) and # 7402 (cotton/polyester 35/65, Testfabrics, Inc., Middlesex, N.J.) were finished in a manner similar to that set forth in Example I. The concentration of the finishing agent used was from about 5 to 15% in the finishing of the cotton fabrics and from about 5 to 20% in the finishing of the cotton/polyester (35/65) blend fabric because of the lower concentration of cellulose in the blend. The final biocidal property was imparted onto the finished fabrics by washing them with a diluted CLOROX® solution containing 0.25% chlorine after each washing circle. Qualitative antibacterial tests were conducted according to AATCC Test Method 147.
(§2) In the AATCC Test Method 147, two pieces of chlorinated fabrics with the size of 25 mm×50 mm were placed on a nutrient agar plate which had been inoculated by five streaks of a diluted bacteria solution using a 4 mm inoculating loop. The diluted bacteria solution was prepared by transferring 1.0 milliliter of 24 hour broth culture into 9.0 milliliter of sterile distilled water. The agar plate was incubated at 37° C. for 18-24 hours. The minimum width of inhibition zone along a streak on either side of the test specimen are measured. Table I sets forth the qualitative biocidal evaluations of the finished fabrics with different concentration of the agent Anti-1.

S. aureus [3] = test: as above; assay type: cell-based, Staphylococcu aureus (ATCC 5368); remark: listed apart in the source
E. coli = test: as above; assay type: cell-based, Escherichia coli (ATCC 2666)
Source text: as §1, §2

[4] = #405 cotton, Anti-1 5%, add-on 1.2%
[5] = #405 cotton, Anti-1 10%, add-on 2.3%
[6] = #405 cotton, Anti-1 15%, add-on 3.1%
[7] = #7402 cotton/polyester 35/65, Anti-1 5%, add-on 0.8%
[8] = #7402 cotton/polyester 35/65, Anti-1 10%, add-on 1.4%
[9] = #7402 cotton/polyester 35/65, Anti-1 15%, add-on 1.6%
[10] = #7402 cotton/polyester 35/65, Anti-1 20%, add-on 2.0%

CC1(C)NC(=O)N(CO)C1=O [Anti-1, monomethylol-5,5-dimethylhydantoin]
>4 mm: Biocidal Results After 50 Times Washing S. aureus (S. aureus [2]; [6]) | Biocidal Results After 20 Times Washing S. aureus (S. aureus [2]; [10]) | Biocidal Results After 50 Times Washing E. coli (E. coli; [6])
kill all: Biocidal Results After 20 Times Washing S. aureus (S. aureus [2]; [6]) | Biocidal Results After 20 Times Washing S. aureus (S. aureus [2]; [9]) | Biocidal results against S. aureus after being activated (S. aureus [3]; Terry cloth 100% Cotton, add-on 1.40%) | Biocidal Results After 20 Times Washing E. coli (E. coli; [6]) | Biocidal Results After 20 Times Washing E. coli (E. coli; [9]) | Biocidal Results After 20 Times Washing E. coli (E. coli; [10])
˜1 mm: Biocidal Results After 50 Times Washing S. aureus (S. aureus [2]; [4]) | Biocidal Results After 50 Times Washing S. aureus (S. aureus [2]; [7]) | Biocidal Results After 50 Times Washing S. aureus (S. aureus [2]; [8])
>2 mm: Biocidal Results After 50 Times Washing E. coli (E. coli; [8]) | Biocidal Results After 50 Times Washing E. coli (E. coli; [9])
0 log: Bacterial Reduction Rates After twenty washings S. aur. (S. aureus [1]; Cl 0.1%, #400) | Bacterial Reduction Rates After fifteen washings S. aur. (S. aureus [1]; Cl 0.25%, #400) | Bacterial Reduction Rates After ten Washings S. aur. (S. aureus [1]; Cl 0.25%, #400) | Bacterial Reduction Rates After twenty washings S. aur. (S. aureus [1]; Cl 0.25%, #400)
>1 mm: Biocidal Results After 20 Times Washing S. aureus (S. aureus [2]; [4]) | Biocidal Results After 50 Times Washing S. aureus (S. aureus [2]; [5]) | Biocidal Results After 20 Times Washing S. aureus (S. aureus [2]; [7]) | Biocidal Results After 20 Times Washing S. aureus (S. aureus [2]; [8]) | Biocidal Results After 50 Times Washing S. aureus (S. aureus [2]; [9]) | Biocidal Results After 50 Times Washing S. aureus (S. aureus [2]; [10]) | Biocidal Results After 50 Times Washing E. coli (E. coli; [4]) | Biocidal Results After 50 Times Washing E. coli (E. coli; [7])
>3 mm: Biocidal Results After 20 Times Washing S. aureus (S. aureus [2]; [5]) | Biocidal Results After 20 Times Washing E. coli (E. coli; [4]) | Biocidal Results After 50 Times Washing E. coli (E. coli; [5]) | Biocidal Results After 20 Times Washing E. coli (E. coli; [7]) | Biocidal Results After 20 Times Washing E. coli (E. coli; [8]) | Biocidal Results After 50 Times Washing E. coli (E. coli; [10])
6 log: Bacterial Reduction Rates After ten Washings S. aur. (S. aureus [1]; Cl 0.01%, #400) | Bacterial Reduction Rates After twenty washings S. aur. (S. aureus [1]; Cl 0.01%, #400) | Bacterial Reduction Rates After fifteen washings S. aur. (S. aureus [1]; Cl 0.01%, #7409) | Bacterial Reduction Rates After five Washings S. aur. (S. aureus [1]; Cl 0.01%, #7409) | Bacterial Reduction Rates After ten Washings S. aur. (S. aureus [1]; Cl 0.01%, #7409) | Bacterial Reduction Rates After twenty washings S. aur. (S. aureus [1]; Cl 0.01%, #7409) | Bacterial Reduction Rates After fifteen washings S. aur. (S. aureus [1]; Cl 0.1%, #400) | Bacterial Reduction Rates After five Washings S. aur. (S. aureus [1]; Cl 0.1%, #400) | Bacterial Reduction Rates After ten Washings S. aur. (S. aureus [1]; Cl 0.1%, #400) | Bacterial Reduction Rates After fifteen washings S. aur. (S. aureus [1]; Cl 0.1%, #7409) | Bacterial Reduction Rates After five Washings S. aur. (S. aureus [1]; Cl 0.1%, #7409) | Bacterial Reduction Rates After ten Washings S. aur. (S. aureus [1]; Cl 0.1%, #7409) | Bacterial Reduction Rates After twenty washings S. aur. (S. aureus [1]; Cl 0.1%, #7409) | Bacterial Reduction Rates After five Washings S. aur. (S. aureus [1]; Cl 0.25%, #400) | Bacterial Reduction Rates After fifteen washings S. aur. (S. aureus [1]; Cl 0.25%, #7409) | Bacterial Reduction Rates After five Washings S. aur. (S. aureus [1]; Cl 0.25%, #7409) | Bacterial Reduction Rates After ten Washings S. aur. (S. aureus [1]; Cl 0.25%, #7409)
>1.0 mm: Biocidal results against S. aureus after being activated (S. aureus [2]; Cotton cloth #400, add-on 1.43%) | Biocidal results against S. aureus after being activated (S. aureus [3]; Rayon, add-on 1.21%)
>8 mm: Biocidal Results After 20 Times Washing E. coli (E. coli; [5])
1 log: Bacterial Reduction Rates After twenty washings S. aur. (S. aureus [1]; Cl 0.25%, #7409)
>4.0 mm: Biocidal results against S. aureus after being activated (S. aureus [3]; Dacron/Cotton 65/35 #7402, add-on 1.19%)
